Broadly, the EC50 is the midpoint of the concentration-response curve. Read a low EC50 as greater potency.

For the test, the target named is T1, human GPR119 (Homo sapiens, UniProt Q8TDV5).
T1 construct: expression vector for human GPR119 cDNA (Acc. No. NP_848566); expressed in transfected cells; Min-6/hGPR119
T1 sequence (Q8TDV5 1-335): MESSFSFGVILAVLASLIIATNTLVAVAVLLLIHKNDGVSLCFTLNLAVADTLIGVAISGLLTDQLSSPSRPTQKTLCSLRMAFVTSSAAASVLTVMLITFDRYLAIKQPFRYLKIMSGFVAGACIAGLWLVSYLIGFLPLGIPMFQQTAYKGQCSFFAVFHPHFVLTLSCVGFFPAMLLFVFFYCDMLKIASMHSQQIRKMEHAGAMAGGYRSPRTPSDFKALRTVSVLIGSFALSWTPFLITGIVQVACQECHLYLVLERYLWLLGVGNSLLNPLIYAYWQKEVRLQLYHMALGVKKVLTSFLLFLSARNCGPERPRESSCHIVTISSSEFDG
Description: AlphaScreen cAMP assay in MIN6 cells stably transfected with human GPR119. Format: cell-based. The settings on record: Min-6/hGPR119 cells, 45 min at room temperature. In outline: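 cAMP accumulation quantified by AlphaScreen after 45 min compound stimulation at about 20 °C. Stimulation buffer: pH 7.4 HEPES saline with 0.5 mM IBMX, 0.1% BSA, 1% DMSO final. Cells: MIN6 stably transfected with human GPR119, 10000/well, cultured 24 h beforehand.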
(In general: Bead proximity is the source of the signal in Alpha formats.)
For the compound `CN(CC1CCOCC1)C(=O)c1ccc(-c2ncc(C(=O)N(C3CC3)C3CCN(C(=O)OC(C)(C)C)CC3)cn2)cc1` [Example 193, 4-[Cyclopropyl-(2-{4-[methyl-(tetrahydro-pyran-4-ylmethyl)-carbamoyl]-phenyl}-pyrimidine-5-carbonyl)-amino]-piperidine-1-carboxylic acid tert-butyl ester], the EC50 came out at 300 nM.

On to `CO[C@@H]1CCN(C(=O)Cc2ccc(-c3ncc(C(=O)N(C4CC4)C4CCN(C(=O)OC(C)(C)C)CC4)cn3)cc2)C1` [Example 194, 4-[Cyclopropyl-(2-{4-[2-(3-methoxy-pyrrolidin-1-yl)-2-oxo-ethyl]-phenyl}-pyrimidine-5-carbonyl)-amino]-piperidine-1-carboxylic acid tert-butyl ester], for which the 50% effective concentration (EC50) came out at 325 nM. The figure for `COCCN(C)C(=O)Cc1ccc(-c2ncc(C(=O)N(C3CC3)C3CCN(C(=O)OC(C)(C)C)CC3)cn2)cc1` [Example 195, 4-{Cyclopropyl-[2-(4-{[(2-methoxy-ethyl)-methyl-carbamoyl]-methyl}-phenyl)-pyrimidine-5-carbonyl]-amino}-piperidine-1-carboxylic acid tert-butyl ester] is 486 nM. As for `COCCN(C)C(=O)c1ccc(-c2ncc(C(=O)N(C3CC3)C3CCN(C(=O)OC(C)(C)C)CC3)cn2)cc1` [Example 196, 4-[Cyclopropyl-(2-{4-[(2-methoxy-ethyl)-methyl-carbamoyl]-phenyl}-pyrimidine-5-carbonyl)-amino]-piperidine-1-carboxylic acid tert-butyl ester], the figure is 215 nM. Compound `CN(Cc1cccnc1)C(=O)c1ccc(-c2ncc(C(=O)N(C3CC3)C3CCN(C(=O)OC(C)(C)C)CC3)cn2)cc1` [Example 197, 4-(Cyclopropyl-{2-[4-(methyl-pyridin-3-ylmethyl-carbamoyl)-phenyl]-pyrimidine-5-carbonyl}-amino)-piperidine-1-carboxylic acid tert-butyl ester] returned an EC50 of 169 nM.

`COCC(C)NC(=O)Cc1ccc(-c2ncc(C(=O)N(C3CC3)C3CCN(C(=O)OC(C)(C)C)CC3)cn2)cc1` (stereo not shown) [Example 198, 4-[Cyclopropyl-(2-{4-[(2-methoxy-1-methyl-ethylcarbamoyl)-methyl]-phenyl}-pyrimidine-5-carbonyl)-amino]-piperidine-1-carboxylic acid tert-butyl ester] showed an EC50 of 715 nM. As for `Cc1cnc(CNC(=O)Cc2ccc(-c3ncc(C(=O)N(C4CC4)C4CCN(C(=O)OC(C)(C)C)CC4)cn3)cc2)s1` [Example 199, 4-{Cyclopropyl-[2-(4-{[(5-methyl-thiazol-2-ylmethyl)-carbamoyl]-methyl}-phenyl)-pyrimidine-5-carbonyl]-amino}-piperidine-1-carboxylic acid tert-buyl ester], the concentration for a half-maximal effect (EC50) worked out at 395 nM. Compound `CN(C)C(=O)CNC(=O)c1ccc(-c2ncc(C(=O)N(C3CC3)C3CCN(C(=O)OC(C)(C)C)CC3)cn2)cc1` [Example 200, 4-(Cyclopropyl-{2-[4-(dimethylcarbamoylmethyl-carbamoyl)-phenyl]-pyrimidine-5-carbonyl}-amino)-piperidine-1-carboxylic acid tert-butyl ester] yielded an EC50 of 449 nM. As for `Cc1nc(CNC(=O)c2ccc(-c3ncc(C(=O)N(C4CC4)C4CCN(C(=O)OC(C)(C)C)CC4)cn3)cc2)cs1` [Example 201, 4-[Cyclopropyl-(2-{4-[(2-methyl-thiazol-4-ylmethyl)-carbamoyl]-phenyl}-pyrimidine-5-carbonyl)-amino]-piperidine-1-carboxylic acid tert-butyl ester], the figure is 180 nM; as for `CN(CC1CCOC1)C(=O)c1ccc(-c2ncc(C(=O)N(C3CC3)C3CCN(C(=O)OC(C)(C)C)CC3)cn2)cc1` (stereo not shown) [Example 202, 4-[Cyclopropyl-(2-{4-[methyl-(tetrahydro-furan-3-ylmethyl)-carbamoyl]-phenyl}-pyrimidine-5-carbonyl)-amino]-piperidine-1-carboxylic acid tert-butyl ester], 171 nM.

These data come from patent US20140045823A1 (Neurocrine Biosciences, Inc., priority 2012, published 2014).
